The test system of data set [1] is L-02 human-derived healthy liver cell line.
Data set [2] shares this test system. Description: CCK-8 viability of healthy liver cells L-02. The following applies: FIG. 6A; for damage to liver cells: DEX 0.1 μM, inhibitors 0.8 μM.
Data set [3] concerns Akt/FoxO3a/Bim signaling pathway in CCRF-CEM cells. Briefly: Western blot of Akt/FoxO3a/Bim signaling pathway proteins in CCRF-CEM cells. The format is cell-based, human. The following applies: CCRF-CEM; inhibitors 0.8 μM; FIG. 5A. The protocol: The control group was not added with any reagents. All experiments were performed in triplicate.
Protein detection by Western blot: in the examples of the present invention, Akt antibody (rabbit derived), phosphorylated Akt antibody (rabbit derived), FoxO3a antibody (rabbit derived), phosphorylated FoxO3a antibody (rabbit derived) and GAPDH antibody (rabbit derived) and secondary antibodies were all purchased from CST company. The cells were collected in a centrifuge tube and centrifuged at 1000 rpm, the supernatant was discarded and the cells were washed twice with PBS pre-cold at 4° C.; cell lysis buffer (150 mM NaCl, 1% NP-40, 0.1% SDS, 2 μg/ml Aprotinin, 2 μg/ml Leupeptin, 1 mM PMSF, 1.5 mM EDTA, 1 mM sodium vanadate) was added and the cells were lysed on ice for 40 minutes, the cell lysate was centrifuged at 20000 rpm, 4° C. for 15 minutes, and the supernatant was collected; a protein loading buffer for sodium dodecyl sulfate polyacrylamide (SDS-PAGE) gel electrophoresis (1.25 mL 1MTris-HCl (pH6.8), 0.5 g SDS, 25 mg BPB, 2.5 mL glycerol, 5 mL deionized water) was added, followed by boiling for 5 minutes to denature proteins; the loading buffer containing denatured proteins was applied to 10% SDS-PAGE for electrophoresis at 120 V, and then transferred to a PVDF membrane (Sangon Biotech (Shanghai) Co., Ltd.) at 130 V for 1.5 hours; after the membrane transfer was completed, the PVDF membrane was immediately rinsed with a Western washing solution (150 mmol/L NaCl, 50 mmol/L Tris-HCl (pH 7.5)) for 1-2 minutes; added with 5% non-fat milk powder (Shanghai Biotechnology Co., Ltd.), agitated gently and then blocked at room temperature for 60 minutes; a primary antibody diluted appropriately with 5% non-fat milk powder was added, and incubated overnight at room temperature with gentle agitating; the primary antibody was recovered and the membrane was washed three times with the washing solution for 5-10 minutes each; a horseradish peroxidase-labeled secondary antibody diluted appropriately with the Western washing solution was added, and incubated at room temperature for 1 hour with gentle agitating; the secondary antibody was recovered and the membrane was washed three times with the Western washing solution for 5-10 minutes each. An appropriate amount of developing solution (DAB 4 mg, 30% hydrogen peroxide 15 μL, 0.01 M Tris-Cl (pH 7.5) 5 mL) was dropped on the PVDF membrane, the image was detected using a bioluminescence image colorimeter and a gel imaging system (Thermo company), and the quantitative analysis of bands was performed using Image Lab software.
(§1) The cells were cultured in RPMI 1640 complete medium (Gibco company) containing 10% fetal bovine serum (FBS, Gibco company) in an incubator (Thermo company) at 5% CO2 and 37° C. until reaching logarithmic growth phase, then different concentrations of inhibitors and/or dexamethasone/ethanol/DMSO were added to the culture medium, followed by further culturing (for addition of dexamethasone/ethanol/DMSO, for 48 hours, and for addition of inhibitor, for 24 hours), and apoptosis was detected by Annexin V-FITC PI double staining and proteins were detected by Western blot, as described in Example 1.
Methods: CCRF-CEM cells were cultured in RPMI 1640 complete medium (Gibco company) containing 10% fetal bovine serum (FBS, Gibco company) in an incubator (Thermo company) at 5% CO2 and 37° C. until reaching logarithmic growth phase, then DMSO, dexamethasone and different inhibitors (DMSO: 0.1%, dexamethasone: 0.1 μM, inhibitors: 0.8 μM) were added to the culture medium, and further cultured (for addition of dexamethasone or DMSO, for 48 hours, and for addition of inhibitors, for 24 hours), and the proteins were detected by Western blot, as described in Example 1.
A general note: A western blot detects proteins with antibodies after separation by electrophoresis.

The test system of data set [4] is Jurkat cells. Briefly: Apoptosis by Annexin V-FITC PI double staining, Jurkat. The format is cell-based, human. The following applies: compared to the only/single dexamethasone group; FIG. 2F, 4J. As to the method:
(§2) Apoptosis was detected by Annexin V-FITC PI double staining method (flow cytometry kit (FITC, PI double staining), Sangon Biotech (Shanghai) Co., Ltd.)), and the collected cells were washed once with phosphate buffered saline (PBS) (135 mM NaCl, 2.7 mM KCl, 1.5 mM KH2PO4 and 8 mM K2HPO4, pH 7.2); the 4× binding buffer was diluted to a 1× binding buffer with deionized water, then the cells were resuspended with 195 ul of the 1× binding buffer at a cell density of 2-5×10^5/ml; 5 μl of Annexin V-FITC was added to the 195 μl of the cell resuspension and mixed, and incubated in dark at room temperature for 10 minutes; the cells were washed once with 200 μl of the 1× binding buffer, and then resuspended in 190 μl of the 1× binding buffer; 10 μl of propidium iodide (20 μg/ml) was added. A flow cytometry device (Beckman company) was used for detection, and the rate of apoptosis was analyzed using Summit software.
as §1
(§3) As described in Example 3, the cells were cultured in RPMI 1640 complete medium containing 10% fetal bovine serum under 5% CO2 and 37° C. until reaching logarithmic growth phase, and then dexamethasone and different concentrations of Akt inhibitor were added to the culture medium, followed by further culture (for addition of dexamethasone/DMSO, for 48 hours, and for addition of the inhibitor, for 24 hours), the apoptosis was detected by Annexin V-FITC PI double staining method and proteins were detected by Western blot as described in Example 1 as well as the cell viability was detected by CCK-8 method.
The transfected cells were selected and passaged for 3 to 5 passages after resuscitation, with Interferin™ as transfection reagent, and the transfection procedure was performed in accordance with the instruction of the transfection reagent. In short, the cells of logarithmic growth phase were plated at 2×10^5/well, the cells were replaced with fresh complete medium (free of antibiotics) during transfection, siRNA was diluted with Opti-MEM and added with an appropriate amount of […]in™ and mixed, incubated at room temperature for 10 minutes prior to being added dropwise to the cells, and the cells were harvested at appropriate time. The cells were transfected with green fluorescein-labeled siRNA (FAM-siRNA) (siRNA at a final concentration of 20 μM, 1.25 μl/well), and the transfection efficiency was observed using a fluorescence microscope 24 hours later. The dexamethasone group was added 24 hours after transfection, followed by culture for further 24 hours, and then the cells were collected for observation; and the equal amount of anhydrous ethanol was added to the control group.

The test system of data set [5] is Daudi cells. Briefly: Cell viability by CCK-8 and combination index, Daudi. Type of data set: cell-based, human. As to the method:
as §3
The inhibitory effect of two drugs (dexamethasone and an inhibitor) alone and in combination on various lymphocyte lines was observed by CCK-8 method (CCK-8 kit), and then the half-inhibitory concentration of each drug was calculated using the median effect equation, and the combination index (CI) of the two drugs used in combination was calculated using CompuSyn software.
(1) the lymphocytes of logarithmic growth phase were taken and made to a cell suspension of 5×10^4/mL, a blank control group (5 wells), a dexamethasone group (3 wells for each concentration, triplicates), a single inhibitor group (3 wells for each concentration, triplicates), a dexamethasone plus inhibitor group (3 wells for each combined concentration, triplicates) were prepared, 180 μL of the suspension was seeded to each well of a 96-well plate, and incubated for 24 hours in an incubator at 5% CO2 and 37° C.
Based on the drug resistance of cells, the ratio of two drugs was fixed. The dexamethasone group was cultured for 48 hours while the inhibitor group was cultured for 24 hours.
(3) 10 μl of CCK-8 was added to each well, and cultured for 2 hours, and the optical density (OD) was measured at 450 nm using an automatic microplate reader, and the proliferation inhibition rate of the drug on cell was calculated.
(4) the proliferation inhibition rate was calculated according to the following equation: cell proliferation inhibition rate=(1-average OD value in the test group/average OD value in the control group)×100%, and the effect of interaction between the two drugs was analyzed by Chou-Talalay combination index method.

Data set [6] concerns Daudi cells. Briefly: Apoptosis by Annexin V-FITC PI double staining, Daudi. Type of data set: cell-based, human. The following applies: compared to the dexamethasone group; FIG. 2K, 4L. As to the method:
as §2
as §1, with “1. […]” for “1.”

Data set [7] in a line: Toxicity in tumor-bearing nude mice (peripheral blood test, organ pathology).
In data set [8] the test system is CEM-DR cells. Briefly: Cell viability by CCK-8 and combination index, CEM-DR. Type of data set: cell-based. The following applies: Homo sapiens; dexamethasone alone (original); read-out: concentration of dexamethasone at which 50% viability of CEM-DR cells (IC50 value) was inhibited. As to the method: as §3
(§4) The inhibitory effect of two drugs (dexamethasone and an inhibitor) alone and in combination on various lymphocyte lines was observed by CCK-8 method (CCK-8 kit), and then the half-inhibitory concentration of each drug was calculated using the median effect equation, and the combination index (CI) of the two drugs used in combination was calculated using CompuSyn software. […]
(§5) (3) 10 μl of CCK-8 was added to each well, and cultured for 2 hours, and the optical density (OD) was measured at 450 nm using an automatic microplate reader, and the proliferation inhibition rate of the drug on cell was calculated. […]

The subject of data set [9] is CCRF-CEM cells. Description: Cell viability by CCK-8 and combination index, CCRF-CEM. Type of data set: cell-based. The following applies: Homo sapiens, dexamethasone alone (original), read-out: concentration of dexamethasone at which 50% viability of CCRF-CEM cells (IC50 value) was inhibited. As to the method:
as §3, §4, §5

Data set [10] deals with Jurkat cells. Briefly: Cell viability by CCK-8 and combination index, Jurkat. The following applies: Homo sapiens, dexamethasone alone (original), read-out: concentration of dexamethasone at which 50% viability of Jurkat cells (IC50 value) was inhibited. The format is cell-based. As to the method:
as §3, §4, §5

The text below walks through data of patent publication US10849906B2, “Use of Akt2 in diagnosis and treatment of tumor” (priority 2015, dated 2020).

For `O=c1[nH]c2ccccc2n1C1CCN(Cc2ccc(-c3nc4cc5nc[nH]c5cc4nc3-c3ccccc3)cc2)CC1` [Akti-1/2], in [1], the “recovery of liver cell activity” value was “gradually recovered after 24 hours of administration”. Also, the “damage to liver cells” value in data set [2] is “certain damage”. Also, the liver cell activity in data set [2] (after 12 hours of administration) was determined as 50.5%. In [3], the “expression of p-Akt1” value is “reduced” and the “expression of p-Akt2” value is “reduced”. In addition, the “apoptosis of Jurkat cells, inhibitor in combination with dexamethasone” value in data set [4] was “significantly increase”. Further, the “effect of inhibitor in combination with dexamethasone in B lymphoma cells (in words)” value in [5] (B lymphoma cells, as shown in Table 1) was “moderate synergistic effect”. The “apoptosis of Daudi cells, inhibitor in combination with dexamethasone” value in data set [6] is on record as “significantly increase”. The “liver pathology (HE staining)” value in data set [7] (7-day administration, FIG. 8A, 8B) is listed as “did not cause morphological changes of the liver tissues”. In addition, the “level of TBIL” value in [7] (compared to the NC group, FIG. 6I) is “significantly increased”. Besides, the “level of peripheral blood AST” value in data set [7] (compared to the normal saline group (NC), FIG. 3F, 6H) is “significantly increased”. Moreover, the “level of peripheral blood ALT” value in data set [7] (compared to the normal saline group (NC), i.p. 7 days, FIG. 3F, 6G) is “significantly increased”.
Turning to `C[C@@H]1C[C@H]2[C@@H]3CCC4=CC(=O)C=C[C@]4(C)[C@@]3(F)[C@@H](O)C[C@]2(C)[C@@]1(O)C(=O)CO` [dexamethasone], the IC50 stood at 138 µM in data set [8]; 0.3 µM in [9]; 224 µM in data set [10]; 225 µM in data set [5] (Homo sapiens, Daudi, dexamethasone alone (original), read-out: concentration of dexamethasone at which 50% viability of Daudi cells (IC50 value) was inhibited). Further, the “damage to liver cells” value in data set [2] is “no damage to liver cells”. Besides, the “peripheral blood leukocyte level” value in data set [7] (compared to the NC group, FIG. 6J) is recorded as “no significant difference”. The “level of peripheral blood RBC” value in [7] (compared to the NC group, FIG. 6K) was “significantly increased”. In addition, in data set [7] (compared to the NC group, FIG. 6L), the “level of peripheral blood HGB” value is “significantly increased”. The “peripheral blood platelet level” value in [7] (compared to the NC group, FIG. 6M) is on record as “no significant difference”. The blood glucose level result in [7] (compared to the NC group, FIG. 6N) is “no significant difference”. The “peripheral blood creatinine level” value in data set [7] (compared to the NC group, FIG. 6O) was “no significant difference”.
